Measurements from patent US6737383B1, “Herbicidal oxadiazolidines” (priority 1999, dated 2004).

Key:
blackgrass [1] = test: Test E blackgrass; assay type: in vivo, Alopecurus myosuroides; conditions: Preemergence
bamyardgrass = test: Test B flood test barnyardgrass; assay type: in vivo, Echinochloa crus-galli
How it was run: (§1)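 Plants were grown to the 2-leaf stage before treatment with test chemical, then held in a greenhouse for twelve to sixteen days. Injury was visually rated against untreated controls on a 0–10 scale, where 0 is no effect and 10 is complete control.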

surinam grass = test: Test D surinam grass; assay type: in vivo, Brachiaria decumbens; conditions: Preemergence, 0 to 100 scale, 0 no injury, 100 complete control
How it was run: (§2)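 Greenhouse pots, seeds in sandy loam; compounds formulated in non-phytotoxic solvent with surfactant; preemergence treatments went on the soil surface within one day of planting. Injury rated visually 14 to 21 days after application on a 0 (none) to 100 (complete control) scale.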

rice = test: Test B flood test rice; assay type: in vivo, Oryza sativa
How it was run: as §1

wild oat [2] = test: Test E wild oat; assay type: in vivo, Avena fatua; conditions: Preemergence, 0 to 100 scale where 0 is no effect and 100 is complete control
winter wheat [3] = test: Test E winter wheat; assay type: in vivo, Triticum aestivum; conditions: Preemergence
wild oat [4] = test: Test B pre/postemergence wild oat; assay type: in vivo, Avena fatua
How it was run: (§3)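 Test chemicals in a non-phytotoxic solvent mixture with surfactant were sprayed preemergence onto planted seeds and postemergence onto plants 2 to 18 cm tall (1- to 4-leaf stage). After twelve to sixteen days in a greenhouse, injury was visually rated against untreated controls from 0 (no effect) to 10 (complete control).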

Johnson grass = test: Test D Johnson grass; assay type: in vivo, Sorghum halepense; conditions: Preemergence, 0 to 100 scale, 0 no injury, 100 complete control
How it was run: as §2

winter wheat [5] = test: Test E winter wheat; assay type: in vivo, Triticum aestivum; conditions: Postemergence
How it was run: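 For postemergence, sowings are timed so plants reach the 1- to 4-leaf stage at spraying. Test compound is applied in a surfactant-containing solvent mixture that is non-phytotoxic. Response is judged by eye against untreated controls after approximately 21 to 28 days.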

winter barley = test: Test E winter barley; assay type: in vivo, Hordeum vulgare; conditions: Preemergence
smallflower flatsedge = test: Test B flood test smallflower flatsedge; assay type: in vivo, Cyperus difformis
How it was run: as §1

blackgrass [6] = test: Test B pre/postemergence blackgrass; assay type: in vivo, Alopecurus myosuroides
How it was run: as §3

Alexandergrass = test: Test D Alexandergrass; assay type: in vivo, Brachiaria plantaginea; conditions: Preemergence, 0 to 100 scale, 0 no injury, 100 complete control
How it was run: as §2

green foxtail = test: Test E green foxtail; assay type: in vivo, Setaria viridis; conditions: Preemergence
Italian ryegrass = test: Test E Italian ryegrass; assay type: in vivo, Lolium multiflorum; conditions: Preemergence
tall mallow = test: Test D tall mallow; assay type: in vivo, Malva sylvestris; conditions: Preemergence, 0 to 100 scale, 0 no injury, 100 complete control
How it was run: as §2

[7] = Rate 500 g/ha, 0 to 100 scale where 0 is no effect and 100 is complete control
[8] = Rate 1000 g/ha, 0 to 100 scale where 0 is no effect and 100 is complete control
[9] = Postemergence, Rate 62 g/ha, scale 0 to 10, 0 is no effect, 10 is complete control
[10] = Rate 62 g/ha, headed Pre-emergence (flood test species), scale 0 to 10 (0 no effect, 10 complete control)
[11] = Rate 125 g/ha, Postemergence section (flood test species), scale 0 to 10, 0 no effect, 10 complete control
[12] = Rate 125 g/ha, Pre-emergence, flood test species, scale 0 to 10 where 0 is no effect and 10 is complete control
[13] = Rate 250 g/ha, headed Pre-emergence (flood test species), scale 0 to 10 (0 no effect, 10 complete control)
[14] = Rate 500 g/ha, Postemergence section of Table B, 0 to 10 scale (0 no effect, 10 complete control)
[15] = Rate 500 g/ha, headed Pre-emergence (flood test species), scale 0 to 10 (0 no effect, 10 complete control)
[16] = Rate 1000 g/ha, Pre-emergence (as headed), scale 0 to 10
[17] = flood test, listed under Postemergence, Rate 250 g/ha, scale 0 to 10, 0 no effect, 10 complete control
[18] = Rate 2000 g/ha, Pre-emergence (as headed), scale 0 to 10
[19] = Postemergence, Rate 250 g/ha, scale 0 to 10, 0 no effect, 10 complete control
[20] = Preemergence, Rate 125 g/ha, scale 0 to 10 (0 no effect, 10 complete control)
[21] = Preemergence, Rate 250 g/ha, scale of 0 to 10 where 0 is no effect and 10 is complete control
[22] = Preemergence, Rate 500 g/ha, scale 0 (no effect) to 10 (complete control)
[23] = Rate 125 g/ha, Postemergence, scale 0 to 10, 0 no effect, 10 complete control

Cc1cccc(C)c1-n1c(=O)on(C(=O)N(c2ccc(F)cc2)C(C)C)c1=O [Compound 18]
60: Plant response rating, I. Ryegrass (Italian ryegrass; [7])
55: Plant response rating, Wheat (winter) (winter wheat [5]; Rate 250 g/ha, 0 to 100 scale (0 no effect, 100 complete control))
30: Plant response rating, Barley (winter) (winter barley; [7]) | Plant response rating, Alexandergrass (Alexandergrass; Rate 125 g/ha) | Plant response rating, Green foxtail (green foxtail; Rate 250 g/ha, 0 to 100 scale)
40: Plant response rating, Wild oat (wild oat [2]; Rate 500 g/ha) | Plant response rating, I. Ryegrass (Italian ryegrass; Rate 250 g/ha, 0 to 100 scale)
85: Plant response rating, Blackgrass (blackgrass [1]; [8])
65: Plant response rating, Wheat (winter) (winter wheat [5]; Rate 500 g/ha, 0 to 100 scale, 0 no effect, 100 complete control)
5: Rice plant response rating (rice; [14]) | Wild oats plant response rating (wild oat [4]; [22]) | Plant response rating, Blackgrass (blackgrass [6]; [21]) | Blackgrass plant response rating (blackgrass [6]; [22])
70: Plant response rating, Green foxtail (green foxtail; [8]) | Plant response rating, I. Ryegrass (Italian ryegrass; [8])
20: Surinam grass plant response rating (surinam grass; Rate 125 g/ha) | Plant response rating, Wheat (winter) (winter wheat [3]; [8]) | Plant response rating, Barley (winter) (winter barley; Rate 250 g/ha, 0 to 100 scale)
0: Barnyardgrass plant response rating (bamyardgrass; [9]) | Barnyardgrass plant response rating (bamyardgrass; [11]) | Plant response rating, Surinam grass (surinam grass; Rate 16 g/ha) | Plant response rating, Surinam grass (surinam grass; Rate 32 g/ha) | Surinam grass plant response rating (surinam grass; Rate 64 g/ha) | Rice plant response rating (rice; [9]) | Rice plant response rating (rice; [10]) | Rice plant response rating (rice; [11]) | Rice plant response rating (rice; [12]) | Rice plant response rating (rice; [13]) | Plant response rating, Rice (rice; [15]) | Rice plant response rating (rice; [16]) | Rice plant response rating (rice; [18]) | Plant response rating, Wheat (winter) (winter wheat [3]; Rate 250 g/ha, 0 to 100 scale) | Wild oats plant response rating (wild oat [4]; [9]) | Wild oats plant response rating (wild oat [4]; [19]) | Plant response rating, Wild oats (wild oat [4]; [20]) | Plant response rating, Wild oats (wild oat [4]; [21]) | Wild oats plant response rating (wild oat [4]; [23]) | Plant response rating Johnsongrass (Johnson grass; Rate 16 g/ha) | Plant response rating Johnsongrass (Johnson grass; Rate 32 g/ha) | Plant response rating Johnsongrass (Johnson grass; Rate 64 g/ha) | Plant response rating Johnsongrass (Johnson grass; Rate 125 g/ha) | S. Flatsedge plant response rating (smallflower flatsedge; [9]) | S. Flatsedge plant response rating (smallflower flatsedge; Pre-emergence, Rate 1000 g/ha, scale 0 to 10 (0 no effect, 10 complete control)) | S. Flatsedge plant response rating (smallflower flatsedge; [10]) | S. Flatsedge plant response rating (smallflower flatsedge; [11]) | S. Flatsedge plant response rating (smallflower flatsedge; [12]) | S. Flatsedge plant response rating (smallflower flatsedge; [13]) | S. Flatsedge plant response rating (smallflower flatsedge; [18]) | Blackgrass plant response rating (blackgrass [6]; [9]) | Plant response rating, Blackgrass (blackgrass [6]; [20]) | Blackgrass plant response rating (blackgrass [6]; [23]) | Plant response rating, Alexandergrass (Alexandergrass; Rate 16 g/ha) | Plant response rating, Alexandergrass (Alexandergrass; Rate 32 g/ha) | Plant response rating, Alexandergrass (Alexandergrass; Rate 64 g/ha) | Plant response rating, Tall Mallow (tall mallow; Rate 16 g/ha) | Plant response rating, Tall Mallow (tall mallow; Rate 32 g/ha) | Tall Mallow plant response rating (tall mallow; Rate 64 g/ha) | Tall Mallow plant response rating (tall mallow; Rate 125 g/ha)
10: Plant response rating, Blackgrass (blackgrass [1]; Rate 250 g/ha, 0 to 100 scale) | Barnyardgrass plant response rating (bamyardgrass; [14]) | Plant response rating, Wheat (winter) (winter wheat [3]; [7])
50: Plant response rating, Wild oat (wild oat [2]; Rate 1000 g/ha) | Plant response rating, Barley (winter) (winter barley; [8]) | Plant response rating, Green foxtail (green foxtail; [7])
25: Plant response rating, Blackgrass (blackgrass [1]; [7])
6: Plant response rating, S. Flatsedge (smallflower flatsedge; [15]) | S. Flatsedge plant response rating (smallflower flatsedge; [17])
9: Barnyardgrass plant response rating (bamyardgrass; [16]) | Barnyardgrass plant response rating (bamyardgrass; Rate 2000 g/ha, Pre-emergence (as headed), scale 0 to 10, 0 no effect, 10 complete control) | Barnyardgrass plant response rating (bamyardgrass; [17])
8: Plant response rating, Barnyardgrass (bamyardgrass; [15])
2: Barnyardgrass plant response rating (bamyardgrass; [10]) | Barnyardgrass plant response rating (bamyardgrass; [12]) | Barnyardgrass plant response rating (bamyardgrass; [13]) | Rice plant response rating (rice; [17]) | Plant response rating, Blackgrass (blackgrass [6]; Preemergence, Rate 62 g/ha, scale 0 to 10, 0 is no effect, 10 is complete control)
3: Blackgrass plant response rating (blackgrass [6]; [19]) | Blackgrass plant response rating (blackgrass [6]; Rate 500 g/ha, Postemergence, 0 to 10 scale (0 no effect, 10 complete control))
